Data set [1] can be described thus: Therapeutic index (LD50/ID50, MAA) value of the compound. As to conditions: read-out: TI.
A short description of data set [2]: Lethal dose required to produce acute toxicity in mice(ip). As to conditions: mouse, in vivo. The class given is organism-based.
The subject of data set [3] is Rattus norvegicus. The data set is described as follows: Biological activity against adjuvant-induced arthritis at the dose of 75 mg/kg (p.o.). The format is functional. As to conditions: route oral.
A short description of data set [4]: Lethal dose required to produce acute toxicity in mice(po). The format is organism-based. To be noted: mouse, in vivo.
Data set [5] deals with Mus musculus. Put plainly: Tested for antiinflammatory activity in the mouse active Arthus (MAA) test by peroral administration. The class given is functional. As to conditions: for ED50: po, read-out: ID50 (the source's name).
Data set [6] deals with Rattus norvegicus. Put plainly: Biological activity against adjuvant-induced arthritis at the dose of 37.5 mg/kg (p.o.); 18/7. The format is functional. As to conditions: route oral.
In data set [7] the test system is Rattus norvegicus. The data set is described as follows: Biological activity against carrageenan-induced edema. The format is functional. As to conditions: read-out: ID50 (the source's name). Background: In the carrageenan paw model, swelling and tenderness develop within hours.
For data set [8], the system named is Rattus norvegicus. Put plainly: Biological activity against adjuvant-induced arthritis at the dose of 37.5 mg/kg (p.o.). As to conditions: route oral. The format is functional.
Data set [9] deals with Rattus norvegicus. Put plainly: Biological activity against adjuvant-induced arthritis at the dose of 150 mg/kg (p.o.); 21/73. The class given is functional. To be noted: route oral.
For data set [10], the system named is Rattus norvegicus. Put plainly: Biological activity against adjuvant-induced arthritis at the dose of 150 mg/kg (p.o.). To be noted: route oral. The class given is functional.
For data set [11], the system named is Rattus norvegicus. The data set is described as follows: Biological activity against adjuvant-induced arthritis at the dose of 75 mg/kg (p.o.); 27/26. The format is functional. As to conditions: route oral.
Data set [12] deals with Mus musculus. The data set is described as follows: Tested for antiinflammatory activity in the mouse active Arthus (MAA) test by intraperitoneal administration. As to conditions: ip, read-out: ID50 (the source's name). The class given is functional.
The subject of data set [13] is Rattus norvegicus. The data set is described as follows: Biological activity against adjuvant-induced arthritis at the dose of 60 mg/kg (p.o.). As to conditions: route oral. The class given is functional.
For data set [14], the species on record is Rattus norvegicus. Put plainly: animal or person. To be noted: po, read-out: Inhibition.
Description: Biological activity against adjuvant-induced arthritis at the dose of 60 mg/kg (p.o.); 56/61
For data set [15], the system named is Rattus norvegicus. The data set is described as follows: Biological activity against adjuvant-induced arthritis at the dose of 120 mg/kg (p.o.); 65/57. To be noted: route oral. The class given is functional.
Data set [16] concerns Rattus norvegicus. Put plainly: Biological activity against adjuvant-induced arthritis at the dose of 30 mg/kg (p.o.). The class given is functional. To be noted: route oral.
The subject of data set [17] is Rattus norvegicus. The data set is described as follows: Biological activity against adjuvant-induced arthritis at the dose of 120 mg/kg (p.o.). The class given is functional. As to conditions: route oral.
Data set [18] is filed under the species Rattus norvegicus. The data set is described as follows: animal or person. As to conditions: po, read-out: Inhibition. The source holds these as a separate data set.
Description: Biological activity against adjuvant-induced arthritis at the dose of 30 mg/kg (p.o.); 30/30

The results in this text go back to ChEMBL document CHEMBL1122028, “1-Acyltriazoles as antiinflammatory agents” (J Med Chem, 1982).

For orientation: LD50 means the dose expected to kill half of the subjects tested. A higher LD50 goes with lower toxicity.

Each structure is given as a SMILES string.

`CC(=O)n1nc(-c2ccc(Cl)cc2)nc1C`: the selectivity ratio in data set [1] was > 9.35. Further, the figures for the LD50 in data set [2] and in [4] were 600 mg/kg and > 3200 mg/kg, respectively. The inhibition in vivo at 75 mg/kg in the data set with Rattus norvegicus [3] was found to be 90%; in the data set on Rattus norvegicus [11], 27%. Besides, in the data set with Mus musculus [5], the ID40 worked out at 175 mg/kg. Also, the ED50 with Mus musculus [5] is 342 mg/kg; in the data set with Rattus norvegicus [7], > 150 mg/kg; with Mus musculus [12], 37 mg/kg. In addition, the inhibition in vivo at 37.5 mg/kg was 18% with Rattus norvegicus [6] and 90% with Rattus norvegicus [8]. Also, the inhibition in vivo at 150 mg/kg in the data set on Rattus norvegicus [9] was 21%; in the data set with Rattus norvegicus [10] it was 90%.

As for `Cc1nnc(C)n1/N=C(\N)c1ccc(C(F)(F)F)cc1`, in the data set on Mus musculus [5], the ED50 was > 600 mg/kg.

On to `CCc1nnc(CC)n1N`, for which the ED50 in the data set on Mus musculus [5] is > 600 mg/kg.

Take `Cc1nc(-c2ccc(Cl)cc2)nn1C(=O)c1ccccc1`: the ED50 in the data set on Mus musculus [5] was > 600 mg/kg.

As for `Cc1ccc(C(=N)Nn2c(C)nnc2C)cc1`, in the data set on Mus musculus [5], the ED50 is > 600 mg/kg.

In the case of `CC(=O)n1nc(-c2ccc(C)cc2)nc1C`, the ED50 with Mus musculus [5] is > 600 mg/kg.

Consider `Cc1nnc(C)n1/N=C(\N)c1ccccc1`, for which the ED50 in the data set on Mus musculus [5] is > 600 mg/kg.

`CC(=O)n1nc(-c2ccc(C(F)(F)F)cc2)nc1C`: the ED50 in the data set with Mus musculus [5] worked out at 411 mg/kg.

Take `CCC(=O)n1nc(-c2ccc(Cl)cc2)nc1C`: the ED50 with Mus musculus [5] is 408 mg/kg.

On to `CCc1nnc(CC)n1/N=C(\N)c1ccc(Cl)cc1`, for which the ED50 in the data set with Mus musculus [5] was > 600 mg/kg.

Turning to `CCc1nc(-c2ccc(Cl)cc2)nn1C(C)=O`, the ED50 in the data set on Mus musculus [5] stood at 543 mg/kg.

Turning to `CC(=O)n1nc(-c2ccccc2)nc1C`, the ED50 in the data set on Mus musculus [5] came to 439 mg/kg.

In the case of `CC(C)Cc1ccc(C(C)C(=O)O)cc1` (configuration not stated) [IBUPROFEN], the inhibition in vivo at 60 mg/kg in the data set on Rattus norvegicus [13] worked out at 100%; in the data set filed under Rattus norvegicus [14], 56%. Also, the selectivity ratio in data set [1] was < 2.15. The values for the LD50 in [2] and in data set [4] were 490 mg/kg and 1650 mg/kg, respectively. This molecule gave an ID40 in the data set with Mus musculus [5] of 386 mg/kg. The ED50 is > 600 mg/kg in the data set with Mus musculus [5], 70 mg/kg with Rattus norvegicus [7] and > 150 mg/kg in the data set with Mus musculus [12]. Moreover, the results for the inhibition in vivo at 120 mg/kg with Rattus norvegicus [15] and with Rattus norvegicus [17] were 65% and 100%, respectively. In addition, the inhibition in vivo at 30 mg/kg in the data set with Rattus norvegicus [16] worked out at 100%; in the data set filed under Rattus norvegicus [18], 30%.
